This passage reports Activity and Dose results from ChEMBL document CHEMBL1125497, “Synthesis and anticonvulsant activity of enaminones” (J Med Chem, 1992).

A value given as a limit tells only on which side of the number the result lay.

Holding throughout (assay type): functional, Mus musculus
Assay [1] in a line: Antiepileptic activity in male CF1 mice 4 hr after administration measured in maximum electroshock seizure(MES) test at a dose of 100 mg/kg (no. of animals treated /protected); activity value is 0/3.
A short description of assay [2]: Antiepileptic activity in male CF1 mice 30 min after administration measured in subcutaneous pentylenetetrazole (scMet) test at a dose of 100 mg/kg (no. of animals treated /protected); activity value is 1/1.
A short description of assay [3]: Antiepileptic activity in male CF1 mice 4 hr after administration measured in subcutaneous pentylenetetrazole (scMet) test at a dose of 100 mg/kg (no. of animals treated /protected); activity value is 0/1.
The nature of assay [4]: Antiepileptic activity in male CF1 mice 30 min after administration measured in neurological toxicity (Tox) test at a dose of 100 mg/kg (no. of animals treated /protected); activity value is 0/4.
Assay [5] is described as follows: Antiepileptic activity in male CF1 mice 30 min after administration measured in maximum electroshock seizure(MES) test at a dose of 100 mg/kg (no. of animals treated /protected); activity value is 0/3.
Assay [6] is described as follows: Antiepileptic activity in male CF1 mice 4 hr after administration measured in neurological toxicity (Tox) test at a dose of 100 mg/kg (no. of animals treated /protected); activity value is 0/2.
Assay [7] in a line: Dose at which anticonvulsant activity was observed in mice.
Assay [8] can be described thus: Antiepileptic activity in male CF1 mice 30 min after administration measured in subcutaneous pentylenetetrazole (scMet) test at a dose of 300 mg/kg (no. of animals treated /protected); activity value is 1/1.
Assay [9] can be described thus: Antiepileptic activity in male CF1 mice 4 hr after administration measured in subcutaneous pentylenetetrazole (scMet) test at a dose of 300 mg/kg; activity value is 0/1.
The nature of assay [10]: Antiepileptic activity in male CF1 mice 30 min after administration measured in neurological toxicity (Tox) test at a dose of 300 mg/kg (no. of animals treated /protected); activity value is 0/4.
A short description of assay [11]: Antiepileptic activity in male CF1 mice 4 hr after administration measured in neurological toxicity (Tox) test at a dose of 300 mg/kg (no. of animals treated /protected); activity value is 0/2.
Assay [12] is described as follows: Antiepileptic activity in male CF1 mice 4 hr after administration measured in maximum electroshock seizure(MES) test at a dose of 300 mg/kg (no. of animals treated /protected); activity value is 1/1.
A short description of assay [13]: Antiepileptic activity in male CF1 mice 30 min after administration measured in maximum electroshock seizure(MES) test at a dose of 300 mg/kg (no. of animals treated /protected); activity value is 1/1.

As to `COC(=O)C1C(=O)C=C(Nc2ccc([N+](=O)[O-])cc2)CC1C` (stereo not drawn), the Activity in assay [1] is on record as 0; in [2] it was 1; in assay [3], 0; in [4], 0; in [5], 0; in assay [6], 0.

Turning to `COC(=O)C1C(=O)C=C(NCc2ccc(Cl)cc2)CC1C` (stereo not drawn), the Dose in assay [7] was more than 100 mg/kg. For the same compound, the Activity in [8] came out at 1; in assay [9] it was 0; in [10], 0; in [11], 0; in [12], 1; in [13], 1.
